Test results published in patent US20260035722A1, “METHOD FOR LIQUEFYING AGAROSE AND PRODUCING NEOAGAROTETRAOSE/NEOAGAROHEXAOSE BY USING THERMOSTABLE GH16B BETA-AGARASE DERIVED FROM NOVEL AGAR-DEGRADING BACTERIUM” (Kyungpook National University Industry-Academic Cooperation …, priority 2022, published 2026).

What was measured:
GH16B β-agarase = test: Agarase activity assay (DNS method): effects of metal ions, reducing agent and EDTA on enzymatic activity; assay type: biochemical, Cellvibrio sp. KY-GH-1; settings: for Relative activity (%): relative to untreated control, mean ± SD (n = 3); for Effect on the enzymatic activity: 0.5 to 2.5 mM
Protocol: (§1) Quantitative analysis of GH16B β-agarase activity was performed using the DNS method, which detects reducing sugars released from agarose. The enzyme solution (100 μL) was mixed with an equal volume of 0.8% melted agarose in an appropriate buffer. The content of reducing sugars formed in the reaction mixture was determined colorimetrically using DNS reagent after 30 min of incubation at 50° C. The amount of enzyme that produced reducing power equivalent to 1 μmol of D-galactose per min was defined as one unit of enzymatic activity.
(§2) The optimal temperature was determined using 50 mM Tris-HCl buffer (pH 7.0) for 30 min over a temperature range of 25 to 70° C. The optimal pH was determined using 50 mM Mollvaine buffer ([…] to 7.5) and 50 mM Tris-HCl buffer (pH 7.5 to 10.0). For temperature and pH stability assays, aliquots of enzyme were preincubated at the indicated temperature and pH for the indicated time, and then the relative enzyme activity was measured under standard assay conditions (30 min, 50° C., 50 mM Tris-HCl buffer, pH 7.0). The kinetic parameters of GH16B β-agarase were determined by adding a known amount of the enzyme solution to the agarose substrate solution (1 to 5 mg/mL agarose in 50 mM Tris-HCl, pH 7.0). The Lineweaver-Burk equation, generated via GraphPad Prism 8 statistical package (GraphPad Software Inc., USA), was used to calculate Km and Vmax values. To examine the effects of metal ions, reducing agent, and chelator EDTA on enzymatic activity, various metal ions (CaCl2, CuSO4, KCl, MgCl2, MnCl2, MnSO4, and NaCl), TCEP, or EDTA were used at the indicated concentrations under standard analytical conditions.

[1] = Zymogram for agarase activity on LB agarose plates (Lugol's iodine); assay type: cell-based, E. coli BL21 (DE3) pLysS transformants; settings: among transformants expressing GH16A, GH16B, GH16C, GH16D β-agarases
Protocol: E. coli BL21 (DE3) pLysS transformants harboring the recombinant pET-30a plasmid containing GH16A, GH16B, GH16C, or GH16D were spotted onto LB agarose plates (containing 1.5% agarose ((Invitrogen, Life technology, Grand Island, NY, USA), 50 μg/mL chloramphenicol, 25 μg/mL kanamycin, and 0.1 mM IPTG) and then incubated for 3 days at 37° C. The plates were stained with Lugol's at room iodine solution temperature.

[2] = Protocol: as §1
as §2, with “The optimal temperature was determined using 50 mM Tris-HCl buffer (pH 7.0) for 30 min over a temperature range of 25 to 70° C.” left out

[3] = Substrate hydrolysis and agarose liquefaction analysed by TLC and MALDI-TOF/TOF MS; assay type: biochemical
Protocol: TLC analysis was performed for GH16B β-agarase-catalyzed hydrolysates of agarose, NAOS, or AOS on Silica Gel 60 aluminum plates, which were developed with n-butanol-ethanol-H2O [3:2:2 (v/v)]. To detect oligosaccharides, a visualization solution (containing 0.2% (w/v) naphthoresorcinol, 10% (v/v) H2SO4, ethanol) was sprayed, followed by heating at 80° C. NA2 and the NAOS standard mixture containing NA2-NA18 were used as standards.
MALDI-TOF/TOF MS was performed according to previously described methods to analyze the hydrolytic products of agarose or AOS through enzymatic reactions. The assisted laser desorption/ionization tandem time-of-flight mass spectrometry (MALDI-TOF/TOF MS) was performed in the positive ion reflectron mode using the ultraflextreme system (Bruker Daltonics). The purified reaction product was dissolved in water, 1 μL of the dissolved reaction product was spotted onto a stainless steel target plate, and 0.3 μL of 0.01 M NaCl and […] of 50 mg/mL 2,5-dihydroxybenzoic acid in 50% acetonitrile were added thereto. The spots were rapidly dried under vacuum for homogeneous crystallization. Each acquired spectrum represents the combined signal from 800 laser shots at each of 3 random locations on the spot, totaling 2,400 laser shots, using a 1-kHz laser. The laser attenuator offset and range were set at 68% and 15%, respectively, with the laser focus set at 50%. Mass spectra were recorded over an m/z range of 0 to 5,100. To obtain high-resolution data, the detector sampling rate was set at a maximum of 4.00 giga samples/s, and the detector gain was set at 4.0×. Mass spectra were externally calibrated using maltooligosaccharides isolated from commercial beer. A ladder of hexose polymers, spaced 1 hexose unit (162.053 Da) apart, provided comprehensive coverage of the entire mass acquisition range, enabling the accurate mass calibration of the MALDI-TOF/TOF MS just prior to the sample analysis. Raw MS data were processed with FlexAnalysis software (version 3.3; Bruker Daltonics). […]

[4] = Kinetic parameters of GH16B β-agarase (Lineweaver-Burk, DNS method); assay type: biochemical; settings: for agarose
Protocol: as §1, §2

Row | Molecule | Relative activity (%) (GH16B β-agarase; 0.5 mM metal ion/chemical) | Relative activity (%) (GH16B β-agarase; 1.0 mM metal ion/chemical) | Relative activity (%) (GH16B β-agarase; 2.5 mM metal ion/chemical) | Effect on the enzymatic activity (GH16B β-agarase) | also measured
1 | [Cl-].[Na+] [NaCl] | 100 (±0.30) % | 109 (±5.33) % | 101 (±2.25) % | no significant effect | 
2 | O=C(O)CN(CCN(CC(=O)O)CC(=O)O)CC(=O)O [EDTA, ethylenediamine tetraacetic acid, reference compound] | 95 (±4.75) % | 95 (±2.02) % | 91 (±4.35) % | no significant effect | 
3 | O=S(=O)([O-])[O-].[Mn+2] [MnSO4] | 146 (±1.95) % | 156 (±0.70) % | 156 (±1.90) % |  | 
4 | O=C(O)CCP(CCC(=O)O)CCC(=O)O [TCEP, tris(2-carboxyethyl)phosphine, reference compound] | 100 (±1.55) % | 109 (±2.85) % | 117 (±6.00) % |  | Enhancement of enzymatic activity (GH16B β-agarase; 5 to 15 mM TCEP, dose-dependent, 0.8 μg/mL enzyme, 0.4% agarose, pH 7.0, 50° C., 30 min): up to 1.6 fold
5 | [Cl][Mn][Cl] [MnCl2] | 125 (±1.40) % | 163 (±2.60) % | 155 (±3.00) % |  | 
6 | [Cl-].[Cl-].[Mg+2] [MgCl2] | 94 (±2.80) % | 107 (±0.80) % | 100 (±3.55) % | no significant effect | 
7 | [Cl-].[K+] [KCl] | 103 (±1.20) % | 109 (±6.41) % | 104 (±3.45) % | no significant effect | 
8 | [Ca+2].[Cl-].[Cl-] [CaCl2] | 96 (±1.80) % | 110 (±6.85) % | 103 (±0.90) % | no significant effect | 
9 | O=S(=O)([O-])[O-].[Cu+2] [CuSO4] | 103 (±0.25) % | 97 (±1.45) % | 74% |  | 
10 | GH16B β-agarase: Thermostable endolytic GH16 family β-agarase (SEQ ID NO: 1, 597 aa, 63.8 kDa) from Cellvibrio sp. KY-GH-1, expressed in E. coli (protein, listed as Cellvibrio sp.) MKKITSCIAAALLLSAPLASFAADWDSVPIPAAAGTGKTWQLQSISDEFNYTASPTVKPAEFNTRWNPSFINSWTGPGDSEFNAGHSYTSGGSLALQSSAKAGTNKIYTGIISSKETFTYPLYLEARVKHTGNTLANAVWMLSADSTQEIDAMESYGSDRAGQEWFDQRMHVSHHVFIRSPFQDYQPKDEGSWVVNPAGGTWRGAMHVYGVHWKDPWNLDYYIDGVKVRTVSGPAMIDPYNFTNGTGINKPLHIIIDVEHQDWRDVRPTAAELADTSKSIMFVDWIRVYKPVTSSATSSSNSVSSSSSSLSNSSSSSATTVIDFANYFDTGKSTASVAGDTYVGFNKSGSGNINYNTAGDWADYLVTLPSDGQYKIEVTTASPMTSGIGAKLSVDGIYVSTTSLAATGGWELYSASTLANNLSIGAGTHTVRIESTGTSAWQWNGDEIRVTKVGSAPVGSPTTPAPVAMIIQAESFSATGGVYDGFKTYSVNGVSAINYNQRGDWADYAVNVAADGSYTFNAYVSSPMSGAALEVSVDGVKVLTQAVPNNGSWDSFQKVSSASKIALTKGAHTIRVTSAGTTSSTWEWNADKFELIP |  |  |  |  | Agarose-degrading activity (bright clear zone around the colonies) [1]: highest; Optimum pH [2]: 7.0; Optimal temperature (highest activity) ([2]; 0.4% agarose, 0.8 μg/mL enzyme, pH 7.0, 30 min): 50 °C; Maximum activity retained ([2]; over the range of 25 to 60° C.): more than 80%; pH stability ([2]; pH 4): rapidly became inactive; Agarose concentration completely hydrolysed into NA4/NA6 ([3]; 1.6 μg/mL enzyme, 1 mM MnCl2, 10 mM TCEP, 50 mM Tris-HCl, pH 7.5, 50° C., 14 hours, magnetic stirring): up to 9.0%; End products of hydrolysis ([3]; AOS substrate): NA4/NA6 but also A5; End products of hydrolysis ([3]; agarose substrate): NA4 and NA6; Vmax [4]: 542.0 U/mg; kcat [4]: 576.3 s⁻¹; Km ([4]; 50 mM Tris-HCl, pH 7.0): 14.40 mg/mL
